The assay addresses T1, PDE4B (human recombinant) (Homo sapiens, UniProt Q07343).
T1 construct: made in house; host or cells: Saccharomyces cerevisiae strain GL62 (PDE-deficient yeast)
The experiment in a line: PDE4B inhibition, IMAP Fluorescence Polarisation (FP) assay. To be noted: n = 2; accuracy ±about 0.5 log unit; read-out: PDE4B pIC50 (FP assay, mean value) (converted). It is filed as biochemical. The text has this: Human recombinant PDE4B, in particular the 2B splice variant thereof (HSPDE4B2B), is disclosed in WO 94/20079 and also M. M. McLaughlin et al., “A low Km, rolipram-sensitive, cAMP-specific phosphodiesterase from human brain: cloning and expression of cDNA, biochemical characterisation of recombinant protein, and tissue distribution of mRNA”, J. Biol. Chem., 1993, 268, 6470-6476. […]
The ability of compounds to inhibit catalytic activity at PDE4B (human recombinant) or PDE4D (human recombinant) can optionally be determined by IMAP Fluorescence Polarisation (FP) assay (IMAP Explorer kit, available from Molecular Devices Corporation, Sunnydale, Calif., USA; Molecular Devices code: R8062) in a 384-well format.
The IMAP FP assay is able to measure PDE activity in an homogenous, non-radioactive assay format. […] Binding of Fl-AMP product to the beads (coated with the immobilised trivalent cations) slows the rotation of the bound Fl-AMP and leads to an increase in the fluorescence polarisation ratio of parallel to perpendicular light. […]
Biological Data obtained for Example 1 and/or Example 1A (i.e. the compound of formula (I)) (PDE4B and PDE4D inhibitory activities, usually as an average of more than one reading) are as follows, based on current measurements only, and using the above or similar or analogous assay methods. […]

T1 sequence (Q07343 1-564 isoform Q07343-2): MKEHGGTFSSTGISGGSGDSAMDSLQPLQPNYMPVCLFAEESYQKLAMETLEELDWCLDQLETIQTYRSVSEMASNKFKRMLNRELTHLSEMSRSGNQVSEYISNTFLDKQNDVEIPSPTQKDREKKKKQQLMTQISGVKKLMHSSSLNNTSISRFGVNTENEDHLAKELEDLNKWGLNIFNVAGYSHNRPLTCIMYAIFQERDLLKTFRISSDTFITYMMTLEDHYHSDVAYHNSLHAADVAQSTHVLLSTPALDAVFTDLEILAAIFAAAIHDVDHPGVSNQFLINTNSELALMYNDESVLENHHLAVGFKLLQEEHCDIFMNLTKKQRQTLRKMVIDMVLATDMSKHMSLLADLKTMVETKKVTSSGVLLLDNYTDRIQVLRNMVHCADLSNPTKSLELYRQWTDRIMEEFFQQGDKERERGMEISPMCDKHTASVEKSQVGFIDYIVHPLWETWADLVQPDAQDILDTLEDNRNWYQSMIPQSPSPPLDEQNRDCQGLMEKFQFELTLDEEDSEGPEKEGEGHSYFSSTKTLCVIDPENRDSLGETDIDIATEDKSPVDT

Consider `CCn1ncc2c(NC3CCN(C(N)=O)CC3)c(C(=O)NCc3ccc(C)c(C)c3)cnc21` [compound of formula (I), 4-{[1-(aminocarbonyl)-4-piperidinyl]amino}-N-[(3,4-dimethylphenyl)methyl]-1-ethyl-1H-pyrazolo[3,4-b]pyridine-5-carboxamide], for which the IC50 is 676 pM.

For the origin of these results see patent US7709497B2, “Pyrazolo[3,4-b]pyridine compound, and its use as a PDE4 inhibitor” (Glaxo Group Limited, priority 2004, dated 2010).
